Assays:
chronic stress rat = test: Chronic unpredictable stress model of rat: novelty-suppressed feeding test; format: in vivo; conditions: stress rats, day 31
Protocol: Animals: SD rats, male, weighing 150-180 g, SPF grade.
Formulation and administration mode of drugs: All drugs for the test were suspended and dispersed with a 0.5% aqueous solution of CMC-Na, and shaken well before use. The rats were administered by i.g. at a volume of 10 mL/kg.
Rats were acclimatized for 3 days after purchase. First, 48 h of sucrose training was performed. After the training, a sucrose baseline test was performed. The rats were randomly and evenly grouped according to sucrose preference. Then, (dl) a 4-week chronic unpredictable stress (CUS) procedure was performed with the following stress methods: (1) food deprivation (fasting); (2) water deprivation; (3) stroboflash; (4) overnight illumination; (5) wet feeding (200 ml of water was added to 150 g of sawdust bedding); (6) noise stimulation (110 dB), 1 h; (7) swimming in cold water (the water temperature was 10° C.); (8) cage tilt (45 degrees of inclination); (9) tail pinch (at 1 cm away from the tail root) for 6 min; (10) restraint for 1-2 h. One of the above stress methods was used randomly every day, but water deprivation and fasting were separated. The corresponding drugs (including the blank control group and the positive drug group) were given 1 h before the stress in the morning every day. Behavior test was performed after the end of the chronic stress. d25, sucrose preference; d28, open-field; d31, novelty-suppressed feeding test.
On the 29th day of the stress program, the rats were fasted for 48 hours (not water deprivation) and then subjected to a novelty-suppressed feeding test (d31). The rats were placed in a novelty-suppressed feeding chamber with an open top. The bottom of the chamber was covered with a 2 cm thick sawdust. In the center of the chamber were placed 12 food balls of the same size. At the same time as the rats were put in, the latency of the rats to start eating within 5 min was calculated. The criterion for eating was that the animal started chewing food instead of just sniffing or toying with food. Rats that had not eaten within 5 minutes were recorded to have a feeding latency of 5 minutes. The test environment of the test should be kept as quiet as possible; the rats should be placed in the same position and direction each time; the environment of the test was preferably different from the breeding environment, and the light intensity of the test environment was greater than that of the breeding environment.

[1] = background statement; cited from earlier work
CYP2C9 = CYP2C9 (Homo sapiens (Human), UniProt P11712); conditions: first-pass effect of the liver; cited from earlier work
[2] = cited from earlier work
CYP1A2 = CYP1A2 (Homo sapiens (Human), UniProt P05177); conditions: cited from earlier work
[3] = target: human MT1 receptor membrane protein (Homo sapiens (Human), UniProt P48039); test: MT1 receptor binding test ([3H]-Melotonin competition)
Protocol: (§1) The receptors included a MT1/MT2 receptor and a 5-HT2C receptor. The test was divided into two parts: prescreening and rescreening. The results of prescreening were expressed as the percentage of binding, and the results of rescreening were expressed as the IC50 value (in M, i.e., mol/L).
(§2) (3) Tris-HCl buffer formulation: 50 mM Tris-HCl Buffer, 1 mM EDTA, 5 mM MgCl2, 0.1% NaN3, and then a certain proportion of PMSF was added to make pH 7.4.
(§3) (4) The example compound to be tested was dissolved in DMSO and formulated as a stock solution of 10^−2 M, and then diluted with distilled water to a concentration gradient of […]. The prescreening of the MT receptor binding test was performed at the concentration of 10^−5 M; the prescreening of the 5-HT2C receptor binding test was performed at the concentrations of 10^−5 and 10^−7 M.
(§4) The statistical analysis was performed using GraphPad Prism 5.0 software. The formula for receptor binding test was: inhibition (%)=[(total CPM of binding−CPM of tube with drug)/(total CPM of binding−non-specific CPM)]×100%, wherein CPM was count of a radioactive intensity.
(§5) 10 μL of receptor membrane protein MT1 or MT2 was added to all the tubes. In non-specific binding tubes, 50 μL of a corresponding unlabeled ligand Ago at a concentration of 10^4 M was added to a final concentration of 10 μM, and pre-reacted for 30 minutes. In test tubes, 30 μL of test drug (MT1: a concentration of 10^4-10^−10 M, MT2: a concentration of […]) was added, respectively; all tubes were added with 40 μL [^3H]-Melotonin, respectively. […] The filter paper was taken out and dried by baking, and then placed in a scintillation bottle. 1 mL of the scintillation liquid was added, and the radioactive intensity was measured by a liquid scintillation counter.

[4] = target: human MT2 receptor membrane protein (Homo sapiens (Human), UniProt P49286); test: MT2 receptor binding test ([3H]-Melotonin competition)
Protocol: as §1, §2, §3, §4, §5

SD rats = test: Anxiety behavior model of repeatedly administrated rat: Vogel drinking conflict test; format: in vivo; conditions: D18, within 3 minutes
Protocol: The requirements for test animals, drug formulation and administration were the same as those of the rat chronic mild stress model.
Instruments: Vogel drinking anxiety device for rat and O-maze device for rat were manufactured by Shanghai XinRuan Company. The rat feeding chamber was a home-made white plastic box (60×45×25 cm).
The rats were administrated continuously by i.g. once a day. A novelty-suppressed feeding test, a Vogel drinking conflict test, and an O-maze test were performed on a different day, respectively. Each behavior test was performed at 9:00-12:00, and the administration time was 16:00-17:00. The test process was as follows: D12, novelty-suppressed feeding test (animals were fasted for 48 hours before the test); D18, Vogel drinking conflict test (animals were banned from water for 48 hours before the test); D21, O-maze test.
The Vogel drinking anxiety device for rat connected a drinking tube of a water bottle, an electric grid and a current loop of a controller through the animal body when rat drank water. The controller can automatically record the number of times the animal drank water and can deliver an electric shock to foot sole. The rat was individually placed in the test chamber after 48 hours of water deprivation. When the animal drank 20 times in the test chamber, the controller started timing for 3 minutes, and every 20 times the rat drank, one electric shock to foot sole was delivered (0.35 mA for 2 s). The device automatically recorded the number of times the rat drank water with electric shock within 3 minutes.

Sequence of human MT1 receptor membrane protein (P48039 whole entry): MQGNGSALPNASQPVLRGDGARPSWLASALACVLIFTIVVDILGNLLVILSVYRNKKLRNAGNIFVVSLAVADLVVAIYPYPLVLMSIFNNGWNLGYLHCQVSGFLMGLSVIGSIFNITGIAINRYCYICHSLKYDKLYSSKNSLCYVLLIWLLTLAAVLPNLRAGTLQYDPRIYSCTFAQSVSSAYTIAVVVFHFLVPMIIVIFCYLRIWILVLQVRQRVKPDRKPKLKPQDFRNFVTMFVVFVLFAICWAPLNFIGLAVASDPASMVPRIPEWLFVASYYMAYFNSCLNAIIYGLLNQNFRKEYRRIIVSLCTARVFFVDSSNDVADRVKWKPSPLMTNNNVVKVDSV
Sequence of human MT2 receptor membrane protein (P49286 whole entry): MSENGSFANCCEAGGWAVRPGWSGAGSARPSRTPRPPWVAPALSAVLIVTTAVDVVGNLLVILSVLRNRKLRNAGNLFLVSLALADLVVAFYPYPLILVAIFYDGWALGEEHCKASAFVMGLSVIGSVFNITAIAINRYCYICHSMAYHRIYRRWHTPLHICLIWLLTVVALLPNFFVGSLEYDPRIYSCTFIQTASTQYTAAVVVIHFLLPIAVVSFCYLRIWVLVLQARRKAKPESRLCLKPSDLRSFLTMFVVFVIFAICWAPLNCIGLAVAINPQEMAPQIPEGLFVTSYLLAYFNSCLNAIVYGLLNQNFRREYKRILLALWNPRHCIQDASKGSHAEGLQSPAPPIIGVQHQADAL
Sequence of CYP1A2 (P05177 whole entry): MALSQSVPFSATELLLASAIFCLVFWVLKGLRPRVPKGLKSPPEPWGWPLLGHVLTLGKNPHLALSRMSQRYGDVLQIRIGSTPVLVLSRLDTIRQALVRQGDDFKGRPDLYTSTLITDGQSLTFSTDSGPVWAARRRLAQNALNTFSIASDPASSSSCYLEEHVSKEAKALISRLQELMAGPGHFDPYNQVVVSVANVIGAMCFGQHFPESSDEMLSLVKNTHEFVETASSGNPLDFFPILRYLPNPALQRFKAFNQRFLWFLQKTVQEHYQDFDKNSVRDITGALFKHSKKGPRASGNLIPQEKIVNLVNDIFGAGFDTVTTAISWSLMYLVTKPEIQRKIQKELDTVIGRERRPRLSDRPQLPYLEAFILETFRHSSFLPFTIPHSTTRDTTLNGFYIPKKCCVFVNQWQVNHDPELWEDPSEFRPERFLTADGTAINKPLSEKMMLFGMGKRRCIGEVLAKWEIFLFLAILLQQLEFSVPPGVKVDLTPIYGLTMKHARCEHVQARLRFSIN
Sequence of CYP2C9 (P11712 whole entry): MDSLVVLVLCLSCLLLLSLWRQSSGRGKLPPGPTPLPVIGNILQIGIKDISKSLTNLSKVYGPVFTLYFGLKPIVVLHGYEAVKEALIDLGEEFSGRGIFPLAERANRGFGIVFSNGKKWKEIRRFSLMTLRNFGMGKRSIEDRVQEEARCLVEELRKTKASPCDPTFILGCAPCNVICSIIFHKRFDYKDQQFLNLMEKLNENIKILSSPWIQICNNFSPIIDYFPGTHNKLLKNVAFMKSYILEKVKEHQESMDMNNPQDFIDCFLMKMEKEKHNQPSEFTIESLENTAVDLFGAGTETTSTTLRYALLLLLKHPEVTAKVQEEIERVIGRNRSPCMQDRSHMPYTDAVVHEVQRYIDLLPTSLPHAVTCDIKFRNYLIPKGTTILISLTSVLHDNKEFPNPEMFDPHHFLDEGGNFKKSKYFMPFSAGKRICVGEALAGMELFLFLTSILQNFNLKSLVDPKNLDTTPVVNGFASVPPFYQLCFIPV

Question: Which Feeding latency (chronic stress rat; 10 mg/kg i.g. daily) does the source give for `COc1ccc2cccc(CCNC(C)=O)c2c1` [Agomelatine, reference compound] here?
Answer: 248 ± 21 ^ s

Question: And the Feeding latency (chronic stress rat; 20 mg/kg i.g. daily)?
Answer: 164 ± 26 s

Question: What about the Feeding latency (chronic stress rat; 40 mg/kg i.g. daily) of the same molecule?
Answer: 130 ± 17 s

Question: What about the absolute bioavailability [1] of the same molecule?
Answer: below 5%

Question: What about the oral absorption [1] of the same molecule?
Answer: over 80%

Question: What about the “share metabolized by CYP2C9” value (CYP2C9) of the same molecule?
Answer: about 10%

Question: And the “patients with an increase in ALT/AST (three times above the normal upper limit)” value [2]?
Answer: more than 1%

Question: And the “share metabolized by CYP1A2” value (CYP1A2)?
Answer: about 90%

Question: For `[2H]C([2H])([2H])Oc1cc2c(CCNC(C)=O)cccc2cc1Cl` [Example 1, N-(2-(6-chloro-7-deuteromethoxy-naphthalen-1-yl)ethyl)acetamide], which “MT1 binding ratio (I %)” value ([3]; prescreening, 10^−5 M) is on record?
Answer: 84%

Question: What about the IC50 ([3]; rescreening) of the same molecule?
Answer: 0.45 ± 0.26 nM

Question: And the “MT2 binding ratio (I %)” value ([4]; prescreening, 10^−5 M)?
Answer: 98%

Question: What about the IC50 ([4]; rescreening) of the same molecule?
Answer: 0.72 ± 0.13 nM

Question: And the Feeding latency (chronic stress rat; 5 mg/kg i.g. daily)?
Answer: 188 ± 21 s

Question: What about the Feeding latency (chronic stress rat; 10 mg/kg i.g. daily) of the same molecule?
Answer: 145 ± 23 s

Question: What about the Feeding latency (chronic stress rat; 20 mg/kg i.g. daily) of the same molecule?
Answer: 115 ± 16 s

Question: What about the Feeding latency (chronic stress rat; 40 mg/kg i.g. daily) of the same molecule?
Answer: 117 ± 14 s

Question: What about the “Number of times drinking water with electric shock (s)” value (“Number of times drinking water” below) (SD rats; 5 mg/kg i.g. once a day) of the same molecule?
Answer: 76 ± 11 number of licks (count)

Question: And the “Number of times drinking water” value (SD rats; 10 mg/kg i.g. once a day)?
Answer: 159 ± 14 number of licks (count)

Question: And the “Number of times drinking water” value (SD rats; 20 mg/kg i.g. once a day)?
Answer: 172 ± 25 number of licks (count)

Question: And the “Number of times drinking water” value (SD rats; 40 mg/kg i.g. once a day)?
Answer: 213 ± 20 number of licks (count)
